The source of these data is ChEMBL document CHEMBL5512617, “Tackling Influenza A virus by M2 ion channel blockers: Latest progress and limitations” (Eur J Med Chem, 2024).

Test [1] has as its system Influenza A virus. The test is described as follows: Antiviral activity against influenza A virus harboring wild type M2 ion channel infected in MDCK cells assessed as viral growth inhibition preincubated with cells for 30 mins followed by viral infection and measured after 72 hrs by CCK-8 assay. It is filed as functional, organism-based. In general terms: Formazan colour is commonly taken as a measure of viable cells.

Test [2] relates to Influenza A virus. It counts as functional, organism-based. The conditions noted are these: A/WSN/33, MDCK, 48 h.
In test [3] the test system is Influenza A virus. It is filed as functional, organism-based, A/WSN/33. The settings on record: mdck.
Test [4] has as its system Influenza A virus. It is filed as functional, organism-based, A/WSN/33. The settings on record: mdck. The source holds these as a separate data set.
The subject of test [5] is Influenza A virus. It counts as functional, organism-based, A/WSN/33. The settings on record: mdck. The source holds these as a separate data set.
In test [6] the test system is Influenza A virus. It is filed as functional, organism-based, A/WSN/33. The settings on record: mdck. The source holds these as a separate data set.
Test [7] has as its system Influenza A virus. It counts as functional, organism-based, A/WSN/33. The settings on record: mdck. The source holds these as a separate data set.
Test [8] concerns Influenza A virus. It is filed as functional, organism-based, A/WSN/33. The settings on record: mdck. The source holds these as a separate data set.
Test [9] concerns Influenza A virus. It is filed as functional, organism-based. The conditions noted are these: A/WSN/33, MDCK, 48 h. The source holds these as a separate data set.
For test [10], the system named is Influenza A virus. It is filed as functional, organism-based. The conditions noted are these: A/HK/68 (H3N2), MDCK.
Test [11] relates to Influenza A virus. It is filed as functional, organism-based, A/WSN/33 (H1N1). The conditions noted are these: mdck.

As to `C[C@H]1[C@H](N)C[C@@H]2C[C@H]1C2(C)C`, the 50% inhibitory concentration (IC50) with Influenza A virus [1] (Influenza A virus, MDCK) was found to be 0.12 µM.

For `COc1ccc(CNC23CC4CC(CC(C4)C2)C3)c(O)c1`, the EC50 was found to be 8.74 µM in the test with Influenza A virus [2] and 1.13 µM in the test on Influenza A virus [3].

Take `CC1(C)[C@@H]2CC[C@@]1(C)[C@@H](CN)C2` [listing 1 of 2 here]: the IC50 in the test with Influenza A virus [1] (Influenza A virus, MDCK) was determined as 0.29 µM.

Consider `CC1(C)[C@@H]2CC[C@@]1(C)[C@@H](CN)C2` [listing 2 of 2 here], for which the IC50 in the test on Influenza A virus [1] (mdck) amounted to 0.49 µM.

For the molecule `COc1ccc(CNc2ccc(C34CC5CC(CC(C5)C3)C4)cc2)c(O)c1`, the EC50 worked out at 17.4 µM in the test with Influenza A virus [4]; 48 µM in the test with Influenza A virus [5]; 8.04 µM in the test on Influenza A virus [2]; 21.6 µM in the test with Influenza A virus [6]; 0.66 µM in the test with Influenza A virus [3]; 55 µM in the test on Influenza A virus [7]. Also, the concentration for a half-maximal effect (EC50) with Influenza A virus [8] was found to be 22.5 µM; in the test with Influenza A virus [9], 0.66 µM.

On to `Cc1cc(/C(=N\O)[C@@H]2C[C@@H]3C[C@H](C2C)C3(C)C)sc1Br` (stereo not given in full), for which the values for the EC50 in the test with Influenza A virus [10] and in the test on Influenza A virus [11] were 7.11 µM and 5.97 µM, respectively.

On to `Cc1cc(/C(=N\O)[C@@H]2C[C@@H]3C[C@H](C2C)C3(C)C)sc1Cl` (stereo not given in full), for which the EC50 in the test on Influenza A virus [10] is 3.29 µM; in the test on Influenza A virus [11], 2.45 µM.

Regarding `CC1[C@H]2C[C@@H](C[C@H]1/C(=N/O)c1cc(Cl)c(Cl)s1)C2(C)C` (stereo not given in full), the half-maximal effective concentration (EC50) in the test with Influenza A virus [10] is 9.44 µM; in the test with Influenza A virus [11] it was 10.2 µM.

Consider `COc1ccc(CNC23CC4C5CC6CC4C(C2)C(C6)C5C3)c(O)c1`, for which the concentration giving a half-maximal response (EC50) is 21.2 µM with Influenza A virus [4]; 55.8 µM in the test on Influenza A virus [5]; 22 µM in the test with Influenza A virus [2]; 17.3 µM with Influenza A virus [6]; 0.29 µM in the test with Influenza A virus [3]; 47.5 µM in the test on Influenza A virus [7]. For the same molecule, the EC50 in the test with Influenza A virus [8] was 38.4 µM; with Influenza A virus [9], 0.29 µM.

On to `CC(N)[C@H]1C[C@H]2CC[C@]1(C)C2(C)C` (stereo not given in full), for which the IC50 in the test with Influenza A virus [1] (Influenza A virus, MDCK) was found to be 0.1 µM.

Turning to `Cc1cc(/C(=N\O)[C@@H]2C[C@@H]3C[C@H](C2C)C3(C)C)sc1C` (stereo not given in full), the EC50 in the test with Influenza A virus [10] was 4.84 µM; in the test on Influenza A virus [11] it was 30.2 µM.

On to `Cc1ccc(/C(=N\O)[C@@H]2C[C@@H]3C[C@H](C2C)C3(C)C)s1` (stereo not given in full), for which the values for the 50% effective concentration (EC50) with Influenza A virus [10] and in the test with Influenza A virus [11] were 29.1 µM and 11.9 µM, respectively.

As for `COc1ccc(CNC(C)(C)C23CC4CC(CC(C4)C2)C3)c(O)c1`, the concentration for a half-maximal effect (EC50) worked out at 19.9 µM in the test with Influenza A virus [4]; 19.2 µM in the test on Influenza A virus [5]; 20.9 µM with Influenza A virus [2]; 1.8 µM in the test on Influenza A virus [6]; 0.09 µM in the test with Influenza A virus [3]; 43.9 µM in the test on Influenza A virus [8]. The EC50 with Influenza A virus [9] was found to be 0.13 µM.

For `COc1ccc(CNC23CC4C5CC6C7CC8CC6C(C5C2)C(C8)(C3)C74)c(O)c1`, it took 8.1 µM to reach a half-maximal effect in the test on Influenza A virus [3] (EC50).

Turning to `CC1[C@H]2C[C@@H](C[C@H]1/C(=N/O)c1cccs1)C2(C)C` (stereo not given in full), the EC50 in the test on Influenza A virus [10] is 12.4 µM; in the test on Influenza A virus [11], 11.8 µM.

On to `Cc1csc(/C(=N\O)[C@@H]2C[C@@H]3C[C@H](C2C)C3(C)C)c1` (stereo not given in full), for which the EC50 came to 10.8 µM in the test on Influenza A virus [10] and 14.8 µM with Influenza A virus [11].

In the case of `NC12CC3CC(CC(C3)C1)C2` [AMANTADINE], the 50% inhibitory concentration (IC50) in the test on Influenza A virus [1] (Influenza A virus, MDCK) was found to be 0.5 µM.

What is called IC50 is the concentration that inhibits the measured activity by half. For orientation: EC50 means the concentration that produces a half-maximal response.
